Test results taken from patent US4699928A, “Fluoroallylamine derivatives” (Merrell Dow Pharmaceuticals Inc., priority 1986, dated 1987).
pIC50: −log10 of the molar value.

Experiments:
[1] = system: heart rate response to p-tyramine; assay: Cheese effect: potentiation of response to intravenous p-tyramine, pithed rats; assay type: in vivo, male Sprague-Dawley rats; settings: for Potentiation of heart rate response to p-tyramine: 18 h, p-tyramine i.v.
Method: (§1) The following test procedures can be employed to assess the potential of a compound of Formula I for producing the "cheese effect": […]
(§2) Eighteen hours later the animals are anaesthetized with pentobarbitone (60 mg/kg i.p.), in some instances pithed, and in all cases set up for recording heart rate and blood pressure by standard techniques.

MAO [2] = assay: Time-dependent kinetics and irreversibility of MAO inhibition, rat brain mitochondria, 14C p-tyramine; assay type: biochemical
Method: (B) The compounds of Formula I can be tested to determine whether or not the MAO inhibition follows time-dependent kinetics by the procedure described below:
(§3) Mitochondria are prepared from rat brain by homogenation in phosphate buffer (0.1 M, pH 7.2) followed by differential centrifugation. The mitochondria are suspended in the same buffer, the test compound is added at the desired concentration, and the system is incubated. At different time intervals, aliquots are taken and MAO activity is measured using ^14 C p-tyramine (a mixed substrate) as the substrate (See A. Christmas et al., supra).

[3] = system: heart rate response to p-tyramine; assay: Cheese effect: potentiation of response to intraduodenal p-tyramine, anaesthetized rats; assay type: in vivo, male Sprague-Dawley rats; settings: 18 h, p-tyramine i.d.
Method: as §1, §2

MAO [4] = assay: Inhibition of MAO ex vivo, p-tyramine as substrate; assay type: in vivo, male Sprague-Dawley rats; settings: 18 h, 14C p-tyramine
Method: The ability of a compound of Formula I to inhibit MAO can be determined ex vivo by the following procedure:
The test compound is administered orally (p.o.) to 300-350 g male Sprague-Dawley rats (Charles River, France) and the animals are killed 18 hours after treatment. The brain, heart, liver and/or duodenum is removed and either a crude homogenate or a mitochondrial fraction, described in Example 5, Part (A), is prepared. MAO activity is determined in the homogenates using ^14 C p-tyramine, as the substrate. Table III gives the results of the testing of (Z)-2-(2',4'-dichlorophenoxy)methyl-3-fluoroallylamine according to the above described procedure. Selectivity can be determined by repeating the above-described test using either ^14 C […] (for MAO-A) or ^14 C phenethylamine (for MAO-B) as the substrate for determining the percentage inhibition.

MAO-B versus MAO-A = assay: Selectivity of inhibition of MAO-B versus MAO-A in vitro (14C phenethylamine / 14C 5-hydroxytryptamine); assay type: biochemical; settings: rat, brain mitochondria
Method: as §3
(C) The selectivity of a compound of Formula I with respect to inhibition of MAO-A and MAO-B can be determined by repeating the procedure of Part B and measuring the MAO activity using ^14 C 5-hydroxytryptamine (a preferred substrate for MAO-A) and ^14 C phenethylamine (a preferred substrate for MAO-B) as the substrate.

MAO [5] = assay: Inhibition of MAO in vitro, partially purified rat brain mitochondria, 14C p-tyramine substrate; assay type: biochemical; settings: tested as hydrochloride salt
Excerpt: Inhibition of MAO--In vitro testing
(A) The ability of a compound of Formula I to inhibit MAO can be determined in vitro by the method of A. Christmas et al., Br. J. Pharmacol., 45, 490 (1972) in partially purified mitochondria from rat brain using ^14 C p-tyramine as the substrate. The MAO inhibitory activity of a compound is expressed as the "IC50 " value, which is the molar concentration required to produce 50% inhibition of the enzyme.

[6] = system: brain monoamines and their metabolites; assay: Inhibition of MAO in vivo: brain monoamines and their metabolites (HPLC); parameters: species or system male Sprague-Dawley rats; settings: for DOPAC, brain / HVA, brain / 5HIAA, brain / NE, brain / 5-HT, brain / DA (dopamine), brain: 18 h, ± S.E.M.; for DOPAC, brain: control 80 ± 3; for HVA, brain: control 81 ± 3; for 5HIAA, brain: control 347 ± 8; for NE, brain: control 369 ± 18; for 5-HT, brain: control 1156 ± 52; for DA (dopamine), brain: control 840 ± 27
Method: The ability of a compound of Formula I to inhibit MAO can be determined in vivo using brain and heart samples obtained from the ex vivo study reported in Example 9. Monoamines and their deaminated metabolites were determined by HPLC with electrochemical detection by the method of J. Wagner et al, J. Neurochem. 38 1241-1254.
When (Z)-2-(2',4'-dichlorophenoxy)methyl-3-fluoroallylamine is tested according to the above-described procedure, the results given in Tables IV and V are obtained. In these tables the following abbreviations are used: […]

pIC50 (MAO [5]): 6.82
SMILES: NC/C(=C/F)COc1ccc(Cl)cc1Cl [(z)-2-(2',4'-dichlorophenoxy)methyl-3-fluoroallylamine]
Potentiation of heart rate response to p-tyramine ([1]; 10 mg/kg by mouth, in words): none
cardiovascular responses to tyramine injected intravenously, in words ([1]; 10 mg/kg p.o. 18 h prior to testing): affected to only a small extent
Potentiation of heart rate response to p-tyramine ([1]; 25 mg/kg by mouth): 2.8 fold
potentiation of tyramine ([1]; 25 mg/kg, two experiments): 2-3 fold
MAO inhibitory activity versus time of incubation (MAO [2]; 14C p-tyramine): increased as a function of time of incubation
irreversibility of MAO inhibition (MAO [2]; dialysis against phosphate buffer (24 hours)): irreversible
initial rate of decrease of activity (MAO [2]; versus concentration of inhibitor): increased with increasing concentration of inhibitor
Potentiation of heart rate response to p-tyramine ([3]; 5 mg/kg by mouth): 1.5 fold
Potentiation of heart rate response to p-tyramine ([3]; 10 mg/kg by mouth): 2.4 fold
Potentiation of heart rate response to p-tyramine ([3]; 25 mg/kg by mouth): 2.0 fold
% Inhibition, Brain (1) (MAO [4]; 1 mg/kg po): 41%
% Inhibition, Duodenum (1) (MAO [4]; 1 mg/kg po): 10%
% Inhibition, Heart (1) (MAO [4]; 1 mg/kg po): 27%
% Inhibition, Liver (1) (MAO [4]; 1 mg/kg po): 0%
% Inhibition, Brain (1) (MAO [4]; 2.5 mg/kg po): 23%
% Inhibition, Duodenum (1) (MAO [4]; 2.5 mg/kg po): 26%
% Inhibition, Heart (1) (MAO [4]; 2.5 mg/kg po): 0%
% Inhibition, Liver (1) (MAO [4]; 2.5 mg/kg po): 9%
% Inhibition, Brain (1) (MAO [4]; 5 mg/kg po): 34%
% Inhibition, Duodenum (1) (MAO [4]; 5 mg/kg po): 55%
% Inhibition, Heart (1) (MAO [4]; 5 mg/kg po): 0%
% Inhibition, Liver (1) (MAO [4]; 5 mg/kg po): 21%
% Inhibition, Brain (1) (MAO [4]; 10 mg/kg po): 55%
% Inhibition, Duodenum (1) (MAO [4]; 10 mg/kg po): 57%
% Inhibition, Heart (1) (MAO [4]; 10 mg/kg po): 0%
% Inhibition, Liver (1) (MAO [4]; 10 mg/kg po): 25%
% Inhibition, Brain (1) (MAO [4]; 25 mg/kg po): 73%
% Inhibition, Duodenum (1) (MAO [4]; 25 mg/kg po): 65%
% Inhibition, Heart (1) (MAO [4]; 25 mg/kg po): 32%
% Inhibition, Liver (1) (MAO [4]; 25 mg/kg po): 55%
Ratio B:A (inhibitory activity against MAO-B versus MAO-A) (MAO-B versus MAO-A): 200
DOPAC, brain ([6]; 1 mg/kg p.o.): 75 ± 11 ng/g
HVA, brain ([6]; 1 mg/kg p.o.): 94 ± 15 ng/g
5HIAA, brain ([6]; 1 mg/kg p.o.): 371 ± 19 ng/g
NE, brain ([6]; 1 mg/kg p.o.): 386 ± 18 ng/g
5-HT, brain ([6]; 1 mg/kg p.o.): 1218 ± 66 ng/g
DA (dopamine), brain ([6]; 1 mg/kg p.o., p <0.05): 945 ± 35 ng/g
DOPAC, brain ([6]; 2.5 mg/kg p.o.): 70 ± 6 ng/g
HVA, brain ([6]; 2.5 mg/kg p.o.): 75 ± 7 ng/g
5HIAA, brain ([6]; 2.5 mg/kg p.o.): 337 ± 15 ng/g
NE, brain ([6]; 2.5 mg/kg p.o.): 409 ± 4 ng/g
DA (dopamine), brain ([6]; 2.5 mg/kg p.o.): 896 ± 31 ng/g
5-HT, brain ([6]; 2.5 mg/kg p.o.): 1119 ± 64 ng/g
HVA, brain ([6]; 5 mg/kg p.o.): 83 ± 7.2 ng/g
NE, brain ([6]; 5 mg/kg p.o.): 415 ± 18 ng/g
5-HT, brain ([6]; 5 mg/kg p.o.): 1340 ± 116 ng/g
DOPAC, brain ([6]; 5 mg/kg p.o., p <0.01): 65 ± 3 ng/g
DA (dopamine), brain ([6]; 5 mg/kg p.o., p <0.02): 943 ± 21 ng/g
5HIAA, brain ([6]; 5 mg/kg p.o., p <0.05): 379 ± 10 ng/g
5HIAA, brain ([6]; 10 mg/kg p.o.): 343 ± 14 ng/g
DA (dopamine), brain ([6]; 10 mg/kg p.o.): 875 ± 16 ng/g
5-HT, brain ([6]; 10 mg/kg p.o.): 1297 ± 100 ng/g
HVA, brain ([6]; 10 mg/kg p.o., p <0.02): 53 ± 10 ng/g
NE, brain ([6]; 10 mg/kg p.o., p <0.02): 439 ± 15 ng/g
5-HT, in words ([6]; 25 mg/kg dose): Significant increases
HVA, brain ([6]; 25 mg/kg p.o.): 75 ± 8 ng/g
NE, brain ([6]; 25 mg/kg p.o., p <0.001): 496 ± 12 ng/g
DA (dopamine), brain ([6]; 25 mg/kg p.o., p <0.001): 1087 ± 29 ng/g
5-HT, brain ([6]; 25 mg/kg p.o., p <0.001): 1623 ± 48 ng/g
5HIAA, brain ([6]; 25 mg/kg p.o., p <0.005): 404 ± 12 ng/g
DOPAC, brain ([6]; 25 mg/kg p.o., p <0.01): 54 ± 6 ng/g
Norepinephrine (NE) concentrations, in words ([6]; 10 and 25 mg/kg dose): increased significantly
dihydroxyphenylacetic acid in the brain, in words ([6]; following the 5 mg/kg dose): significant reductions
dopamine in the brain, in words ([6]; following the 5 mg/kg dose): increases in dopamine
selectivity of action, in words ([6]; lower doses (MAO-B) and higher doses (MAO-A)): selectivity of action against MAO-B at the lower doses and a small degree of MAO-A inhibition occurring at the higher doses
